Measured values taken from patent US7674486B2, “Synergistic composition for the treatment of diabetes mellitus” (Indus Biotech Pvt. Ltd., priority 2003, dated 2010).

Assays:
[1] = system: pancreas (potassium channel mediated insulin secretion); experiment: K+ ions in pancreas homogenate by Biolyte analyser; assay type: in vivo, mouse; conditions: pancreas homogenate at 1 hour; oral: Total amino acids 10 mg/kg, Trigonelline 75 mg/kg, Glyburide 10 mg/kg, Composition 30 mg/kg
Method: EXPERIMENT 6:—The effect of the composition prepared as per Experiment 1 & 2 as well as their individual components separated on column chromatography were studied on normal Swiss Albino mice (male) in the weight range of 25-30 gms for GTT. The animals were fed in the following manner. • 1) Administration of 2 gm/kg of glucose by Inter Peritonially. • 2) Administration of the drug (Orally):
• 3) Measurement of BSL at 0 minutes & 1 hour. • 4) Immediately after blood removal at 1 hour, the animals were sacrificed by tail flicking and the pancreas was removed and homogenized using tris buffer. After centrifugation, the homogenate was characterized by thin layer chromatography and K^+ Ions by Biolyte analyser. Following are the observations:
Decreased K+ ion concentration indicates the repolarisation effect as the ATP dependant IK-ATP

normal Swiss Albino mice = experiment: GTT in normal Swiss Albino mice (BSL); assay type: in vivo, mouse; conditions: glucose 2 gm/kg i.p.; oral: Total amino acids 10 mg/kg, Trigonelline 75 mg/kg, Glyburide 10 mg/kg, Composition 30 mg/kg
Source text: The animals were fed in the following manner. • 1) Administration of 2 gm/kg of glucose by Inter Peritonially. • 2) Administration of the drug (Orally): [table] […] After centrifugation, the homogenate was characterized by thin layer chromatography and K^+ Ions by Biolyte analyser.

[2] = Comparative hypoglycemic activity of fenugreek seed powder, fenugreek components and the composition; conditions: in vivo
Source text: The comparative results of fenugreek seed powder (whole), and the composition of the instant application are shown below to establish inventiveness of the application.
The activity was restricted to only a couple of components. Also, synergy was observed by a selective combination of three components of the composition. The same is elaborated with the help of experimental data as given below.

[3] = system: Female wistar rats, sciatic nerve; experiment: Partial sciatic nerve ligation: motor function test, pain scale; assay type: in vivo, rat; conditions: 50 mg/kg, scale 0 nil to 5 highly severe
Method: This experiment is conducted to evaluate the neuropathy effects. • 1. Partial Sciatic Nerve Ligation • 2. Formalin Induced Behavioral And Thermal Hyperalgesia Experiment 1: Partial Sciatic Nerve Ligation Material and Method:— Preparation of Animals:— Animals:—Female wistar rats 175-250 gram (n=6)
(§1) Surgery:—Under ether anesthesia and aseptic conditions the right sciatic nerve was exposed at high thigh level. In sham operated animals the nerve was left intact and the wound was closed with 2 muscle suture and 3-4 skin sutures.
(§2) In experimental animals the sciatic nerve underwent partial injury. The dorsum of the nerve was carefully freed from surrounding connective tissues at a site near the trochanter just distil to the point at which the posterior biceps semitendinosus nerve branches off the common sciatic nerve. Using an irish forceps the nerve was fixed in its place by pinching the epineurium on its dorsal aspect, taking care not to press the nerve against underlying structures. An 4-0 silk suture was inserted into the nerve with ⅜ curved, reverse-cutting mini needle, and tightly ligated so that the dorsal ⅓−½ of the nerve thickness was trapped in the ligature. The wound was then closed as in sham operated rats. In all rats the left leg and sciatic nerve were untouched.
(§3) The animals were divided into following groups:—
(§4) Group 1 Control (vehicle treated) (but nerve not ligated)
(§5) Group 2 Sham treated (vehicle treated)(Surgery done but no ligation of nerve)
(§6) Group 3 Vitamin E acetate (50 mg/kg) (nerve ligated)
(§7) Group 4 Indus test drug (100 mg/kg) (nerve ligated)
(§8) Group 5 Indus test drug (200 mg/kg) (nerve ligated)
• a. Thermal hyperalgesia (TH):—This was assessed using Ugo Basile Hot Plate instrument (at 55±1° C.). Antinociceptive effects were determined according to the latency (in seconds) of limb withdrawal to the noxious thermal simulation (Ugo Basile hot plate, Versace, Italy). […] Motor function test (MFT):—Motor function was monitored by observation of spontaneous gait and hind paw posture. […] The readings were observed on day 0, 2, 15 and 30.

[4] = system: Female wistar rats, sciatic nerve; experiment: Partial sciatic nerve ligation: thermal hyperalgesia (hot plate); assay type: in vivo, rat; conditions: 50 mg/kg, nerve ligated
Method: This experiment is conducted to evaluate the neuropathy effects. • 1. Partial Sciatic Nerve Ligation • 2.
as §1, §2, §3, §4, §5, §6, §7, §8
• a. Thermal hyperalgesia (TH):—This was assessed using Ugo Basile Hot Plate instrument (at 55±1° C.). Antinociceptive effects were determined according to the latency (in seconds) of limb withdrawal to the noxious thermal simulation (Ugo Basile hot plate, Versace, Italy). Cut off value of planter test was set to 22 s to prevent limb injury. The pain threshold were tested on day 0, 2, 4, 6, 8, 10, 12, 14, 21 and 28. • b. Motor function test (MFT):—Motor function was monitored by observation of spontaneous gait and hind paw posture. Each animal was placed in a plastic box with plexiglass walls and allowed to habituate for at least 5 minutes before the observation period. […] The readings were observed on day 0, 2, 15 and 30.

Male wistar rats, kidney = experiment: Diabetic nephropathy model (Alloxan plus left renal artery clamping); assay type: in vivo, rat
Method: Male wistar rats of 150-200 gram were injected Alloxan (150 mg/kg i.p.) to induce diabetes. Once the animals show blood sugar above 250 mg/dl, animals are divided in groups as mentioned below and dosing of same is started as per groups. After 7 days of dosing in test drug groups and 3 days dosing in insulin group surgery is performed. In all groups animals were anesthetized and a small midline incision was made to isolate left renal artery and clamped for 30 minutes after which animals were stitched back. This is a kidney ligation technique to induce diabetic nephropathy in experimental animals. In Group 1, complete procedure was same but no treatment is given. The animals were then allowed to recover and dosing was continued as per given in various groups till day 30th after surgery. Creatinine clearance was noted on 0th, 10th, 20th and 30th day. After 30 days animals were sacrificed and kidney was sent for histopathological evaluation. Group 1 Saline (untreated) Group 2 Test drug (low dose) Group 3 Test drug (medium dose) Group 4 Test drug (high dose) Group 5 Standard (insulin)

Compound: COc1ccc(Cl)cc1C(=O)NCCc1ccc(S(=O)(=O)NC(=O)NC2CCCCC2)cc1 [Glyburide]
- K+ Ions (μ Mol) [1]: 22.5 μ Mol
- BSL after 1 hour (normal Swiss Albino mice): 251 mg/dL
- BSL at 0 hrs (normal Swiss Albino mice): 365 mg/dL

Compound: C[n+]1cccc(C(=O)[O-])c1 [Trigonelline]
- K+ Ions (μ Mol) [1]: 21.8 μ Mol
- Hypoglycemic activity (%) [2]: 31%
- BSL after 1 hour (normal Swiss Albino mice): 233 mg/dL
- BSL at 0 hrs (normal Swiss Albino mice): 341 mg/dL

Compound: CC(=O)Oc1c(C)c(C)c2c(c1C)CCC(C)(CCC[C@H](C)CCC[C@H](C)CCCC(C)C)O2 (some centres unmarked) [Vitamin E, Vitamin E acetate]
- Motor function test, Pain scale ([3]; 0th day): 0
- Motor function test, Pain scale ([3]; 2nd day): 2.77
- Motor function test, Pain scale ([3]; 15th day): 1.25
- Thermal hyperalgesia, latency of limb withdrawal ([4]; 0th day (before ligation)): 9.51 s
- Thermal hyperalgesia, latency of limb withdrawal ([4]; 2nd day): 3.24 s
- Thermal hyperalgesia, latency of limb withdrawal ([4]; 4th day): 5.9 s
- Thermal hyperalgesia, latency of limb withdrawal ([4]; 6th day): 7.12 s
- Thermal hyperalgesia, latency of limb withdrawal ([4]; 8th day): 7.95 s
- Thermal hyperalgesia, latency of limb withdrawal ([4]; 10th day): 9.81 s
- Thermal hyperalgesia, latency of limb withdrawal ([4]; 12th day): 9.88 s
- Thermal hyperalgesia, latency of limb withdrawal ([4]; 14th day): 10.04 s

Compound: insulin: Standard in nephropathy model
- Histopathology of the kidney: cellularity and matrix (Male wistar rats, kidney; insulin group): did not show any increase in cellularity and matrix
- Histopathology of the kidney: tubular necrosis, interstitial fibrosis (Male wistar rats, kidney; insulin treated group): very mild
